Values after ≈ are worked out from the molar mass of the structure shown.
Experiments:
Escherichia coli [1] = experiment: microbe, parasite or virus in culture; settings: ATCC 25922
physchem [2] = settings: buffer, pH 4
Klebsiella oxytoca = experiment: microbe, parasite or virus in culture
in vitro [3] = settings: human, hepatocytes
Proteus mirabilis = experiment: microbe, parasite or virus in culture
in vitro [4] = settings: rat, hepatocytes
Citrobacter freundii = experiment: microbe, parasite or virus in culture
physchem [5] = settings: n-octanol/phosphate buffer, pH 7.4
physchem [6] = experiment: physchem
[7] = tested on: Stenotrophomonas maltophilia; experiment: microbe, parasite or virus in culture
Escherichia coli [8] = experiment: microbe, parasite or virus in culture
in vivo [9] = settings: mouse, sc, 150 mg/kg
in vitro [10] = settings: human, liver microsomes
in vivo [11] = settings: Wistar, rat, iv, 10 mg/kg
Acinetobacter baumannii = experiment: microbe, parasite or virus in culture
Klebsiella aerogenes = experiment: microbe, parasite or virus in culture
Haemophilus influenzae = experiment: microbe, parasite or virus in culture
Pseudomonas aeruginosa [12] = experiment: microbe, parasite or virus in culture; settings: ATCC 27853
Klebsiella pneumoniae [13] = experiment: microbe, parasite or virus in culture; settings: T6474
[14] = tested on: T1, UDP-3-O-acyl-N-acetylglucosamine deacetylase (Pseudomonas aeruginosa (strain ATCC 15692 / PAO1 / 1C / PRS 101 / LMG12228)), P47205 [C40S]; settings: 25 uM
T1 sequence (whole entry): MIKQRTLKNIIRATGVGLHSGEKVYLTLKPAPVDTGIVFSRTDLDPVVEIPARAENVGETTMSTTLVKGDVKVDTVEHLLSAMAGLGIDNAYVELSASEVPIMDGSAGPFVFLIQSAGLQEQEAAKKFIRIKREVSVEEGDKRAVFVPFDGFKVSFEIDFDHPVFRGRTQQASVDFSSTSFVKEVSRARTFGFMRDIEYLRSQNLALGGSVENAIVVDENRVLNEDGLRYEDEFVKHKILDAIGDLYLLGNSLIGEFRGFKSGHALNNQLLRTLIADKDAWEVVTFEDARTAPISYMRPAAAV

physchem [15] = settings: buffer, pH 9
[16] = tested on: T2, UDP-3-O-acyl-N-acetylglucosamine deacetylase (Escherichia coli K-12), P0A725 [C125S]; settings: 25 uM
T2 sequence (whole entry): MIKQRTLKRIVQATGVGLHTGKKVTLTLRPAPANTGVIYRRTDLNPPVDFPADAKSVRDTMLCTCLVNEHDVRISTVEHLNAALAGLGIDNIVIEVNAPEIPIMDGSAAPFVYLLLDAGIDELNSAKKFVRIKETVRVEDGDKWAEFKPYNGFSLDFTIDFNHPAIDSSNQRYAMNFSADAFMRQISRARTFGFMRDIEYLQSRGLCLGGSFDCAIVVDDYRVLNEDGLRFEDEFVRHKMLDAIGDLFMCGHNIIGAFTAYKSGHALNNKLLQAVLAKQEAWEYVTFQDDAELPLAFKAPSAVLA

in vitro [17] = settings: rat, plasma
physchem [18] = settings: buffer, pH 7
Pseudomonas aeruginosa [19] = experiment: microbe, parasite or virus in culture
Burkholderia cepacia = experiment: microbe, parasite or virus in culture
Klebsiella pneumoniae [20] = experiment: microbe, parasite or virus in culture
Serratia marcescens = experiment: microbe, parasite or virus in culture
physchem [21] = settings: 5% mannitol/water, pH 4.5
Enterobacter cloacae = experiment: microbe, parasite or virus in culture
in vitro [22] = settings: rat, liver microsomes
Moraxella catarrhalis = experiment: microbe, parasite or virus in culture
Morganella morganii = experiment: microbe, parasite or virus in culture
in vivo [23] = settings: Wistar, rat, iv, 50 mg/kg
physchem [24] = settings: 5% mannitol/water, pH 8.4
in vivo [25] = settings: mouse, sc, 50 mg/kg

Compound | MIC (Escherichia coli [1]) | solubility at 24 h (physchem [2]) | MIC90 (Klebsiella oxytoca) | hepatocyte CLint at 1 µM (in vitro [3]) | MIC90 (Proteus mirabilis) | hepatocyte CLint at 1 µM (in vitro [4]) | MIC90 (Citrobacter freundii) | logD (physchem [5]) | MIC90 [7] | MIC90 (Escherichia coli [8]) | AUC(0-t) at 24 h (in vivo [9]) | microsomal CLint at 1 µM (in vitro [10]) | clearance at 24 h (in vivo [11]) | MIC90 (Acinetobacter baumannii) | MIC (Pseudomonas aeruginosa [12]) | MIC (Klebsiella pneumoniae [13]) | solubility at 24 h (physchem [15]) | fraction unbound at 1 µM (in vitro [17]) | solubility at 24 h (physchem [18]) | microsomal CLint at 1 µM (in vitro [22]) | other results
CN1CC(C#CC#Cc2cc3n(c2)C(=O)N(CC[C@](C)(C(=O)NO)S(C)(=O)=O)C3)C1 | 0.5 µg/mL (≈ 1.16 µM) | > 730 µg/mL | 4 µg/mL (≈ 9.25 µM) | < 2 µL/min/1e6 cells | 1 µg/mL (≈ 2.31 µM) | 8.6 µL/min/1e6 cells | 1 µg/mL (≈ 2.31 µM) | 0.3 | > 16 µg/mL | 1 µg/mL (≈ 2.31 µM) | 52900 ng·h/mL | 48 µL/min/mg | 18 mL/min/kg | > 16 µg/mL | 0.5 µg/mL (≈ 1.16 µM) | 0.5 µg/mL (≈ 1.16 µM) | > 730 µg/mL | 0.19 | > 730 µg/mL | 665 µL/min/mg | pKa (physchem [6]): 8.4; MIC90 (Klebsiella aerogenes): 1 µg/mL (≈ 2.31 µM); MIC90 (Haemophilus influenzae): ≤ 0.03 µg/mL; deltaTm [14]: 9.9 K; deltaTm [16]: 8.9 K; MIC90 (Pseudomonas aeruginosa [19]): 2 µg/mL (≈ 4.62 µM); MIC90 (Burkholderia cepacia): 16 µg/mL (≈ 37 µM); MIC90 (Klebsiella pneumoniae [20]): 4 µg/mL (≈ 9.25 µM); MIC90 (Serratia marcescens): 0.5 µg/mL (≈ 1.16 µM); solubility (physchem [21]): 30000 µg/mL (≈ 69400 µM); MIC90 (Enterobacter cloacae): 4 µg/mL (≈ 9.25 µM); MIC90 (Moraxella catarrhalis): > 16 µg/mL; MIC90 (Morganella morganii): 0.5 µg/mL (≈ 1.16 µM)
C[C@@](CCN1Cc2cc(C#CC#CC3CN(CCO)C3)cn2C1=O)(C(=O)NO)S(C)(=O)=O | 0.5 µg/mL (≈ 1.08 µM) | > 780 µg/mL | 4 µg/mL (≈ 8.65 µM) | < 2 µL/min/1e6 cells | 1 µg/mL (≈ 2.16 µM) | 7.3 µL/min/1e6 cells | 1 µg/mL (≈ 2.16 µM) | 0.1 | > 16 µg/mL | 1 µg/mL (≈ 2.16 µM) | 63200 ng·h/mL | 14 µL/min/mg | – | > 16 µg/mL | 0.5 µg/mL (≈ 1.08 µM) | 1 µg/mL (≈ 2.16 µM) | > 780 µg/mL | 0.301 | > 780 µg/mL | 198 µL/min/mg | pKa (physchem [6]): 7.9; MIC90 (Klebsiella aerogenes): 1 µg/mL (≈ 2.16 µM); MIC90 (Haemophilus influenzae): ≤ 0.03 µg/mL; deltaTm [14]: 11.2 K; deltaTm [16]: 9.7 K; MIC90 (Pseudomonas aeruginosa [19]): 2 µg/mL (≈ 4.32 µM); MIC90 (Burkholderia cepacia): 16 µg/mL (≈ 34.6 µM); MIC90 (Klebsiella pneumoniae [20]): 2 µg/mL (≈ 4.32 µM); MIC90 (Serratia marcescens): 1 µg/mL (≈ 2.16 µM); solubility (physchem [21]): 30000 µg/mL (≈ 64900 µM); MIC90 (Enterobacter cloacae): 4 µg/mL (≈ 8.65 µM); MIC90 (Moraxella catarrhalis): > 16 µg/mL; clearance at 24 h (in vivo [23]): 28 mL/min/kg; MIC90 (Morganella morganii): 1 µg/mL (≈ 2.16 µM)
C[C@@](CCN1Cc2cc(C#CC#CC3CN(CCF)C3)cn2C1=O)(C(=O)NO)S(C)(=O)=O | 0.06 µg/mL (≈ 0.129 µM) | > 780 µg/mL | 0.125 µg/mL (≈ 0.269 µM) | < 2 µL/min/1e6 cells | 0.5 µg/mL (≈ 1.08 µM) | 15.4 µL/min/1e6 cells | 0.5 µg/mL (≈ 1.08 µM) | 1 | > 16 µg/mL | 0.25 µg/mL (≈ 0.538 µM) | 49100 ng·h/mL | < 10 µL/min/mg | 38 mL/min/kg | > 16 µg/mL | 0.5 µg/mL (≈ 1.08 µM) | 0.25 µg/mL (≈ 0.538 µM) | > 780 µg/mL | 0.067 | 247 µg/mL (≈ 532 µM) | > 1250 µL/min/mg | pKa (physchem [6]): 6.7; MIC90 (Klebsiella aerogenes): 1 µg/mL (≈ 2.15 µM); MIC90 (Haemophilus influenzae): ≤ 0.03 µg/mL; deltaTm [14]: 12.9 K; deltaTm [16]: 10.6 K; MIC90 (Pseudomonas aeruginosa [19]): 1 µg/mL (≈ 2.15 µM); MIC90 (Burkholderia cepacia): 4 µg/mL (≈ 8.61 µM); MIC90 (Klebsiella pneumoniae [20]): 2 µg/mL (≈ 4.31 µM); MIC90 (Serratia marcescens): 0.25 µg/mL (≈ 0.538 µM); solubility (physchem [21]): 25000 µg/mL (≈ 53800 µM); MIC90 (Enterobacter cloacae): 1 µg/mL (≈ 2.15 µM); MIC90 (Moraxella catarrhalis): > 16 µg/mL; MIC90 (Morganella morganii): 0.25 µg/mL (≈ 0.538 µM)
C[C@@](CCN1Cc2cc(C#CC#C[C@@H]3C[C@@]3(F)CO)cn2C1=O)(C(=O)NO)S(C)(=O)=O | 0.25 µg/mL (≈ 0.554 µM) | 220 µg/mL (≈ 487 µM) | 4 µg/mL (≈ 8.86 µM) | < 2 µL/min/1e6 cells | 2 µg/mL (≈ 4.43 µM) | 13 µL/min/1e6 cells | 1 µg/mL (≈ 2.21 µM) | 0.9 | > 16 µg/mL | 2 µg/mL (≈ 4.43 µM) | 236000 ng·h/mL | < 10 µL/min/mg | 5.2 mL/min/kg | > 16 µg/mL | 0.5 µg/mL (≈ 1.11 µM) | 0.5 µg/mL (≈ 1.11 µM) | > 760 µg/mL | 0.017 | 248 µg/mL (≈ 549 µM) | 12 µL/min/mg | MIC90 (Klebsiella aerogenes): 2 µg/mL (≈ 4.43 µM); MIC90 (Haemophilus influenzae): ≤ 0.03 µg/mL; MIC90 (Pseudomonas aeruginosa [19]): 2 µg/mL (≈ 4.43 µM); MIC90 (Burkholderia cepacia): 2 µg/mL (≈ 4.43 µM); MIC90 (Klebsiella pneumoniae [20]): 4 µg/mL (≈ 8.86 µM); solubility (physchem [24]): 1000 µg/mL (≈ 2210 µM); MIC90 (Serratia marcescens): 1 µg/mL (≈ 2.21 µM); MIC90 (Enterobacter cloacae): 4 µg/mL (≈ 8.86 µM); MIC90 (Moraxella catarrhalis): > 16 µg/mL; MIC90 (Morganella morganii): 0.5 µg/mL (≈ 1.11 µM)
C[C@@](CCN1Cc2cc(C#CC#C[C@H]3C[C@@H]3CO)cn2C1=O)(C(=O)NO)S(C)(=O)=O | 0.12 µg/mL (≈ 0.277 µM) | 600 µg/mL (≈ 1380 µM) | – | 3.2 µL/min/1e6 cells | – | 19 µL/min/1e6 cells | – | – | – | – | – | < 10 µL/min/mg | 17 mL/min/kg | – | 0.25 µg/mL (≈ 0.577 µM) | 0.25 µg/mL (≈ 0.577 µM) | 628 µg/mL (≈ 1450 µM) | 0.008 | 588 µg/mL (≈ 1360 µM) | < 10 µL/min/mg | AUC(0-t) at 24 h (in vivo [25]): 124000 ng·h/mL

From ChEMBL document CHEMBL4321867, “Optimization of LpxC Inhibitor Lead Compounds Focusing on Efficacy and Formulation for High Dose Intravenous Administration” (J Med Chem, 2020)
